In brackets after ≈: the same amount, converted by molar mass.
Columns and labels:
Type in all cases: cell-based
Fusobacterium nucleatum [1] = assay: MIC (Minimum Inhibitory Concentration) study, 96 well microtiter plate; settings: F. nucleatum, 5×10^5 CFU/ml, 37° C., turbidity at 660 nm after 48 hours
Procedure: (§1) In vitro tests were conducted with a gram positive supragingival plaque bacterium, Streptococcus mutans. In addition, two subgingival plaque bacteria associated with oral malodor were tested, Porphyromonas gingivalis and Fusobacterium nucleatum. The MIC (Minimum Inhibitory Concentrations) study protocol is as follows. Chlorhexidine was used as a positive control and sterile water was used as a negative control. Citral was suspended in 10% methanol with 3.8% Tween 80. […] 96 well microtiter plates were used for this study. Each well contained 5×10^5 colony forming units/ml of bacteria, serially diluted agents and bacterial growth medium. All bacterial cultures were incubated at 37° C. and stationary. Bacterial growth was estimated spectrophotometrically at 660 nm, after 48 hours. The MIC for each test bacteria was defined as the minimum concentration of test compound limiting turbidity to<absorbance at 660 nm.

Porphyromonas gingivalis [2] = assay: as above; settings: P. gingivalis, 5×10^5 CFU/ml, 37° C., turbidity at 660 nm after 48 hours
Procedure: as §1

Streptococcus mutans = assay: as above; settings: S. mutans, 5×10^5 CFU/ml, 37° C., turbidity at 660 nm after 48 hours
Procedure: as §1

Fusobacterium nucleatum [3] = assay: MBC (Minimum bactericidal concentration), plating on blood agar; settings: F. nucleatum, lowest concentration killing at least 99.9% of initial inoculum, plates 48 hours at 37° C.
Procedure: as §1, with “[…]. The MBC (Minimum bactericidal concentrations) were determined using the 96 well microtiter plate serial dilutions as described above for MIC studies. Serial dilution of cultures in wells showing no visible growth were performed and 10 microliters of culture were plated in triplicate on blood agar plates. Viable colonies were scored after incubation of the plates for 48 hours at 37° C. For each test bacterium, the number of CFU/ml were determined in the initial inoculum. The MBC was defined as the lowest concentration of a test compound that killed at least 99.9% of the cells present in the initial inoculum.” for “nm.”

Porphyromonas gingivalis [4] = assay: as above; settings: P. gingivalis, lowest concentration killing at least 99.9% of initial inoculum, plates 48 hours at 37° C.
Procedure: as §1, with “[…]. The MBC (Minimum bactericidal concentrations) were determined using the 96 well microtiter plate serial dilutions as described above for MIC studies. Serial dilution of cultures in wells showing no visible growth were performed and 10 microliters of culture were plated in triplicate on blood agar plates. Viable colonies were scored after incubation of the plates for 48 hours at 37° C. For each test bacterium, the number of CFU/ml were determined in the initial inoculum. The MBC was defined as the lowest concentration of a test compound that killed at least 99.9% of the cells present in the initial inoculum.” for “nm.”

| MIC (Fusobacterium nucleatum [1]) [mg/L] | MIC (Porphyromonas gingivalis [2]) [mg/L] | MIC (Streptococcus mutans) [mg/L] | Structure (SMILES) | MBC (Fusobacterium nucleatum [3]) [mg/L] | MBC (Porphyromonas gingivalis [4]) [mg/L] |
| --- | --- | --- | --- | --- | --- |
| 15.6 (≈ 102 µM) | 62.5 (≈ 411 µM) | 500 (≈ 3280 µM) | CC(C)=CCCC(C)=CC=O [citral] | 31.3 (≈ 206 µM) | 125 (≈ 821 µM) |
| 1.25 (≈ 2.47 µM) | 1.25 (≈ 2.47 µM) |  | [H]/N=C(\N/C(=N/[H])NCCCCCCNC(=N)NC(=N)Nc1ccc(Cl)cc1)Nc1ccc(Cl)cc1 [Cholorhexidine, Chlorhexidine, reference compound] | 1.25 (≈ 2.47 µM) | 1.25 (≈ 2.47 µM) |

Reference: US20040253190A1, “Breath Freshening and Oral Cleansing Product Using Citral” (priority 2002, published 2004)
